Source: PubChem BioAssay AID1963448 (Molecular Pharmacology Branch, DTP, NCI, 2024)

Test system: 616215-338-R-J1-PDC complex spheroid growth, % test/control
Assay: Anticancer human tumor 616215-338-R-J1-PDC patient-derived colon adenocarcinoma cell line growth inhibition [Asc]
Conditions: for IC50: curve of first compound; for viability, T/C: stronger effect = lower value
Method in brief: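 Spheroid model: tumor line + HUVEC + hMSC. Single agents and combinations; top conc. at/near clinical Cmax (10 microM if undetermined), half-log dilutions. DMSO stocks at 800-fold test concentration.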

[1] = second compound 0.1 µM, first compound 0.0316 µM
[2] = second compound 0.1 µM, first compound 0.1 µM
[3] = second compound 0.1 µM, first compound 0.316 µM
[4] = second compound 0.1 µM, first compound 1 µM
[5] = second compound 0.1 µM, first compound 3.16 µM
[6] = second compound 0.1 µM, first compound 10 µM
[7] = second compound 0.316 µM, first compound 0.0316 µM
[8] = second compound 0.316 µM, first compound 0.1 µM
[9] = second compound 0.316 µM, first compound 0.316 µM
[10] = second compound 0.316 µM, first compound 1 µM
[11] = second compound 0.316 µM, first compound 3.16 µM
[12] = second compound 0.316 µM, first compound 10 µM
[13] = second compound 1 µM, first compound 0.0316 µM
[14] = second compound 1 µM, first compound 0.1 µM
[15] = second compound 1 µM, first compound 0.316 µM
[16] = second compound 1 µM, first compound 1 µM
[17] = second compound 1 µM, first compound 3.16 µM
[18] = second compound 1 µM, first compound 10 µM
[19] = second compound 3.16 µM, first compound 0.0316 µM
[20] = second compound 3.16 µM, first compound 0.1 µM
[21] = second compound 3.16 µM, first compound 0.316 µM
[22] = second compound 3.16 µM, first compound 1 µM
[23] = second compound 3.16 µM, first compound 3.16 µM
[24] = second compound 3.16 µM, first compound 10 µM
[25] = second compound 10 µM, first compound 0.0316 µM
[26] = second compound 10 µM, first compound 0.1 µM
[27] = second compound 10 µM, first compound 0.316 µM
[28] = second compound 10 µM, first compound 1 µM
[29] = second compound 10 µM, first compound 3.16 µM
[30] = second compound 10 µM, first compound 10 µM
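Further: spheroids exposed to agents for seven days before readout.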
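Wherever viability, T/C is given: 100% = DMSO vehicle control viability.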

IC50 (second compound 0.1 µM) [µM] | IC50 (second compound 0.316 µM) [µM] | IC50 (second compound 1 µM) [µM] | IC50 (second compound 3.16 µM) [µM] | IC50 (second compound 10 µM) [µM] | SMILES | viability, T/C [1] [%] | viability, T/C [2] [%] | viability, T/C [3] [%] | viability, T/C [4] [%] | viability, T/C [5] [%] | viability, T/C [6] [%] | viability, T/C [7] [%] | viability, T/C [8] [%] | viability, T/C [9] [%] | viability, T/C [10] [%] | viability, T/C [11] [%] | viability, T/C [12] [%] | viability, T/C [13] [%] | viability, T/C [14] [%] | viability, T/C [15] [%] | further results
5.43 | 4.9 | 2.95 | < 0.0316 | < 0.0316 | C=C(F)C(=O)N1CCN(c2nc(OCC3CCCN3C)nc3c2CCN(c2cccc4cccc(Cl)c24)C3)CC1CC#N (stereo not given) + Cc1c(S(C)(=O)=O)c(-c2cc(F)cc(N3CCN(c4ccc(NS(=O)(=O)c5ccc(NC(CCN6CCC(C(=O)OCCCP(=O)(O)O)CC6)CSc6ccccc6)c(S(=O)(=O)C(F)(F)F)c5)cc4)CC3)c2)c(-c2ccc(Cl)cc2)n1C(C)C | 93.2 | 91.6 | 87.8 | 100 | 96.1 | 0.45 | 89.1 | 89.3 | 85.6 | 88.5 | 80.4 | 0.42 | 65 | 70.8 | 67.9 | viability, T/C [16]: 62.8%; viability, T/C [17]: 49.4%; viability, T/C [18]: 0.39%; viability, T/C [19]: 37.2%; viability, T/C [20]: 36.6%; viability, T/C [21]: 35.4%; viability, T/C [22]: 32%; viability, T/C [23]: 2.23%; viability, T/C [24]: 0.3%; viability, T/C [25]: 26.4%; viability, T/C [26]: 23.3%; viability, T/C [27]: 20.3%; viability, T/C [28]: 18.8%; viability, T/C [29]: 1.56%; viability, T/C [30]: 0.39%
> 10 | > 10 | 2.35 | < 0.0316 | < 0.0316 | C=CC(=O)N1CCN(c2nc(=O)n(-c3c(C)ccnc3C(C)C)c3nc(-c4c(O)cccc4F)c(F)cc23)C(C)C1 (stereo not given) + Cc1c(S(C)(=O)=O)c(-c2cc(F)cc(N3CCN(c4ccc(NS(=O)(=O)c5ccc(NC(CCN6CCC(C(=O)OCCCP(=O)(O)O)CC6)CSc6ccccc6)c(S(=O)(=O)C(F)(F)F)c5)cc4)CC3)c2)c(-c2ccc(Cl)cc2)n1C(C)C | 87.5 | 89.8 | 90.4 | 92.9 | 87.5 | 88.3 | 87.7 | 86.9 | 84.5 | 92.1 | 83.4 | 64.4 | 67.6 | 74.5 | 68 | viability, T/C [16]: 61.6%; viability, T/C [17]: 45.9%; viability, T/C [18]: 42%; viability, T/C [19]: 36%; viability, T/C [20]: 40.6%; viability, T/C [21]: 37.9%; viability, T/C [22]: 30.2%; viability, T/C [23]: 22.3%; viability, T/C [24]: 17.7%; viability, T/C [25]: 24.9%; viability, T/C [26]: 26.2%; viability, T/C [27]: 21.9%; viability, T/C [28]: 20%; viability, T/C [29]: 17.5%; viability, T/C [30]: 5.58%
